Activity calls are given as the source filed them. The rule behind the calls is not given here.

This data set has as its system rodent carcinogenicity bioassays, tumor incidence. Description: CCRIS carcinogenicity studies. The procedure, abridged:
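NCI-built, expert-reviewed records of carcinogenicity and related test outcomes (mutagenicity, tumor promotion/inhibition) compiled from published and report sources, historical span 1985-2011, not updated.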

Consider `COc1ccc(C(=O)/C(Br)=C\C(=O)O)cc1`, for which the carcinogen call runs as follows: (Species: MOUSE, Strain/Sex: B6C3F1/FEMALE, Route: INTRAPERITONEAL, Dose: 0, 12, 24 MG/KG 3/WK FOR 104 WK (STUDY DURATION: 104-105 WK), Dose: 0, 12, 24 MG/KG 3/WK FOR 104 WK (STUDY DURATION: 104-105 WK)) “inactive; negative”; (Species: MOUSE, Strain/Sex: B6C3F1/MALE, Route: INTRAPERITONEAL, Dose: 0, 12, 24 MG/KG 3/WK FOR 104 WK (STUDY DURATION: 104-105 WK), Dose: 0, 12, 24 MG/KG 3/WK FOR 104 WK (STUDY DURATION: 104-105 WK)) “inactive; negative”; (Species: RAT, Strain/Sex: F344/FEMALE, Route: INTRAPERITONEAL, Dose: 0, 7, 14 MG/KG 3/WK FOR 104 WK (STUDY DURATION: 104-105 WK), Dose: 0, 7, 14 MG/KG 3/WK FOR 104 WK (STUDY DURATION: 104-105 WK), Tumor Site: Type of Lesion: MAMMARY GLAND: FIBROADENOMA) “active; positive”; (Species: RAT, Strain/Sex: F344/MALE, Route: INTRAPERITONEAL, Dose: 0, 7, 14 MG/KG 3/WK FOR 104 WK (STUDY DURATION: 104-105 WK), Dose: 0, 7, 14 MG/KG 3/WK FOR 104 WK (STUDY DURATION: 104-105 WK), Tumor Site: Type of Lesion: MULTIPLE SITES: MALIGNANT MESOTHELIOMA, TUNICA VAGINALIS: MESOTHELIOMA) “active; positive”.

On to `Clc1ccc(C(c2ccc(Cl)cc2)C(Cl)Cl)cc1`, for which the carcinogen call by setting is: (Species: MOUSE, Strain/Sex: B6C3F1/FEMALE, Route: ORAL, Dose: 0, 411, 822 PPM IN DIET FOR 78 WK (STUDY DURATION: 93 WK), Dose: 0, 411, 822 PPM IN DIET FOR 78 WK (STUDY DURATION: 93 WK)) “inactive; negative”; (Species: MOUSE, Strain/Sex: B6C3F1/MALE, Route: ORAL, Dose: 0, 411, 822 PPM IN DIET FOR 78 WK (STUDY DURATION: 93 WK), Dose: 0, 411, 822 PPM IN DIET FOR 78 WK (STUDY DURATION: 93 WK)) “inactive; negative”; (Species: MOUSE, Strain/Sex: CF-1/MALE,FEMALE, Route: ORAL, Dose: 250 PPM IN DIET, Tumor Site: Type of Lesion: LUNG) “active; positive”; (Species: RAT, Strain/Sex: OSBORNE-MENDEL/FEMALE, Route: ORAL, Dose: 0, 850, 1700 PPM IN DIET FOR 78 WK (STUDY DURATION: 113 WK), Dose: 0, 850, 1700 PPM IN DIET FOR 78 WK (STUDY DURATION: 113 WK)) “inactive; negative”; (Species: RAT, Strain/Sex: OSBORNE-MENDEL/MALE, Route: ORAL, Dose: 0, 1647, 3294 PPM IN DIET FOR 78 WK (STUDY DURATION: 113 WK), Dose: 0, 1647, 3294 PPM IN DIET FOR 78 WK (STUDY DURATION: 113 WK), Tumor Site: Type of Lesion: THYROID GLAND: FOLLICULAR CELL CARCINOMA OR ADENOMA) “equivocal”.

Regarding `CC(/C=C/C=C(\C)C(=O)O[C@@H]1O[C@H](CO[C@@H]2O[C@H](CO)[C@@H](O)[C@H](O)[C@H]2O)[C@@H](O)[C@H](O)[C@H]1O)=C\C=C\C=C(C)\C=C\C=C(/C)C(=O)O[C@@H]1O[C@H](CO[C@@H]2O[C@H](CO)[C@@H](O)[C@H](O)[C@H]2O)[C@@H](O)[C@H](O)[C@H]1O`, the carcinogen call reads like this: (Species: MOUSE, Strain/Sex: C57BL/FEMALE, Route: ORAL, Dose: 0, 0.2, 0.8% IN DRINKING WATER FOR 95 WK (STUDY DURATION: 95 WK), Dose: 0, 0.2, 0.8% IN DRINKING WATER FOR 95 WK (STUDY DURATION: 95 WK)) “inactive; negative”; (Species: MOUSE, Strain/Sex: C57BL/MALE, Route: ORAL, Dose: 0, 0.2, 0.8% IN DRINKING WATER FOR 95 WK (STUDY DURATION: 95 WK), Dose: 0, 0.2, 0.8% IN DRINKING WATER FOR 95 WK (STUDY DURATION: 95 WK)) “inactive; negative”.

For `Cc1ccc(N=Nc2c(O)c(C(=O)O)cc3ccccc23)c(S(=O)(=O)O)c1`, the carcinogen call was “inactive; negative” (Species: MOUSE, Strain/Sex: ICR/FEMALE, Route: DERMAL, Dose: 0, 1 MG IN 0.1 ML DISTILLED WATER 2/WK FOR A MEAN TOTAL DOSE OF 130.6 MG (STUDY DURATION: 18 MO)) and “inactive; negative” (Species: MOUSE, Strain/Sex: ICR/MALE, Route: DERMAL, Dose: 0, 1 MG IN 0.1 ML DISTILLED WATER 2/WK FOR A MEAN TOTAL DOSE OF 130.6 MG (STUDY DURATION: 18 MO)).

Turning to `C=CC(=O)OCCCCCC(C)C`, the carcinogen call (Species: MOUSE, Strain/Sex: C3H/MALE, Route: DERMAL, Dose: 25 µL (5% V/V) IN ACETONE APPLIED TO BACK 3 D/WK FOR LIFE (STUDY DURATION: LIFE)) is “inactive; negative”.

Regarding `COP(=O)(OC)OC`, the carcinogen call reads like this: (Species: MOUSE, Strain/Sex: B6C3F1/FEMALE, Route: GAVAGE, Dose: 0, 250, 500 MG/KG 3/WK FOR 103 WK, Dose: 0, 250, 500 MG/KG 3/WK FOR 103 WK, Tumor Site: Type of Lesion: UTERUS (ENDOMETRIUM): ADENOCARCINOMA (NOS)) “active; positive”; (Species: MOUSE, Strain/Sex: B6C3F1/MALE, Route: GAVAGE, Dose: 0, 250, 500 MG/KG 3/WK FOR 103 WK, Dose: 0, 250, 500 MG/KG 3/WK FOR 103 WK) “inactive; negative”; (Species: RAT, Strain/Sex: F344/FEMALE, Route: GAVAGE, Dose: 0, 50, 100 MG/KG 3/WK FOR 104 WK (STUDY DURATION: 105 WK), Dose: 0, 50, 100 MG/KG 3/WK FOR 104 WK (STUDY DURATION: 105 WK)) “inactive; negative”; (Species: RAT, Strain/Sex: WISTAR/FEMALE, Route: ORAL, Dose: 0, 1, 10, 100 MG/KG/D IN DRINKING WATER FOR DURATION OF STUDY, HIGH DOSE REDUCED TO 50 MG/KG IN WK 54 (STUDY DURATION: 3, Dose: 0, 1, 10, 100 MG/KG/D IN DRINKING WATER FOR DURATION OF STUDY, HIGH DOSE REDUCED TO 50 MG/KG IN WK 54 (STUDY DURATION: 3) “inactive; negative”; (Species: RAT, Strain/Sex: WISTAR/MALE, Route: ORAL, Dose: 0, 1, 10, 100 MG/KG/D IN DRINKING WATER FOR DURATION OF STUDY, HIGH DOSE REDUCED TO 50 MG/KG IN WK 54 (STUDY DURATION: 3, Dose: 0, 1, 10, 100 MG/KG/D IN DRINKING WATER FOR DURATION OF STUDY, HIGH DOSE REDUCED TO 50 MG/KG IN WK 54 (STUDY DURATION: 3) “inactive; negative”.

Consider `N[C@H](CCC(=O)N[C@H](Cc1c[nH]c2ccccc12)C(=O)O)C(=O)O`, for which the carcinogen call (Species: MOUSE, Strain/Sex: C57BL.CBA, Route: SC, Dose: 0.0145 AND 0.145 MG/KG 2X WK FOR 104 WK (STUDY DURATION: 104 WK)) was “inactive; negative” and the carcinogen call (Species: RAT, Strain/Sex: WISTAR, Route: SC, Dose: 0.0145 AND 0.145 MG/KG 2X WK FOR 104 WK (STUDY DURATION: 104 WK)) is “inactive; negative”.

Regarding `O[C@H]1C=C2c3c(cccc3[C@@H]1O)-c1ccc3ccccc3c12`, the carcinogen call (Species: MOUSE, Strain/Sex: CD-1/FEMALE, Route: INTRAPERITONEAL, Dose: 0, 0.275, 1.1 UMOL (TOTAL DOSE) ADMINISTERED OVER DAYS 1, 8, AND 15 OF LIFE (STUDY DURATION: 52 WEEKS), Dose: 0, 0.275, 1.1 UMOL (TOTAL DOSE) ADMINISTERED OVER DAYS 1, 8, AND 15 OF LIFE (STUDY DURATION: 52 WEEKS), Tumor Site: Type of Lesion: LUNG: ALVEOLAR/BRONCHIOLAR CARCINOMA) is “active; positive” and the carcinogen call (Species: MOUSE, Strain/Sex: CD-1/MALE, Route: INTRAPERITONEAL, Dose: 0, 0.275, 1.1 UMOL (TOTAL DOSE) ADMINISTERED OVER DAYS 1, 8, AND 15 OF LIFE (STUDY DURATION: 52 WEEKS), Dose: 0, 0.275, 1.1 UMOL (TOTAL DOSE) ADMINISTERED OVER DAYS 1, 8, AND 15 OF LIFE (STUDY DURATION: 52 WEEKS), Tumor Site: Type of Lesion: LUNG: ALVEOLAR/BRONCHIOLAR CARCINOMA, LIVER: ADENOMA OR CARCINOMA) is “active; positive”.

`COCC(=O)N(c1c(C)cccc1C)C(C)C(=O)OC` (configuration not stated): the carcinogen call is “inactive; negative” (Species: Mouse, Strain/Sex: ICI Alderly Park (Swiss strain origin)/Female (60/Group), Route: Oral, Dose: 0, 50, 250, 1250 ppm of 93.8-95.2% metalaxyl in diet for 104 wk, study duration 104 wk, Dose: 0, 50, 250, 1250 ppm of 93.8-95.2% metalaxyl in diet for 104 wk, study duration 104 wk); “inactive; negative” (Species: Mouse, Strain/Sex: ICI Alderly Park (Swiss strain origin)/Male (60/Group), Route: Oral, Dose: 0, 50, 250, 1250 ppm of 93.8-95.2% metalaxyl in diet for 104 wk, study duration 104 wk, Dose: 0, 50, 250, 1250 ppm of 93.8-95.2% metalaxyl in diet for 104 wk, study duration 104 wk); “active; positive” (Species: Rat, Strain/Sex: CD (Sprague-Dawley derived)/Female (70/Group), Route: Oral, Dose: 0, 50, 250, 1250 ppm of 93% metalaxyl in diet for 105 wk, study duration 105 wk, Dose: 0, 50, 250, 1250 ppm of 93% metalaxyl in diet for 105 wk, study duration 105 wk, Tumor Site: Type of Lesion: Thyroid: follicular cell adenoma); “inactive; negative” (Species: Rat, Strain/Sex: CD (Sprague-Dawley derived)/Male (70/Group), Route: Oral, Dose: 0, 50, 250, 1250 ppm of 93% metalaxyl in diet for 105 wk, study duration 105 wk, Dose: 0, 50, 250, 1250 ppm of 93% metalaxyl in diet for 105 wk, study duration 105 wk).

For the origin of these results see PubChem BioAssay AID1259411 (Chemical Carcinogenesis Research Information System (CCRIS), 2018).
